The record followed here is paper PMC8241580 (Bioorganic Chemistry, 2021).

For orientation: IC50 means the concentration that inhibits the measured activity by half.

Test [1] has as its system HCT116 (colon) cancer cell line. The test can be described thus: MTT antiproliferative assay, HCT116. The test is classed as cell-based. The conditions noted are these: Homo sapiens, HCT-116, 72 h, read-out: IC50 (μM) ± SE HCT116.
Test [2] has as its system chick embryo chorioallantoic membrane (CAM) blood vessels. The test can be described thus: CAM assay. The test is classed as in vivo, chicken. The conditions noted are these: 20 μl of 660 μM, 3 days of treatment, n = 4, vehicle control 14.00 ± 3.00.
Test [3] has as its system PaCa-2 (pancreatic) cancer cell line. The test can be described thus: MTT antiproliferative assay, PaCa-2. The format is cell-based. The note with it: for IC50: PaCa-2, 72 h, read-out: IC50 (μM) ± SE PaCa-2; for Potency against PaCa2 relative to Sunitinib: ratio of IC50 values.
The target of test [4] is c-kit (Homo sapiens, UniProt P10721). The test can be described thus: c-Kit ADP-Glo kinase assay. The format is biochemical. Background: ADP-Glo first removes unused ATP, then detects ADP through luciferase.
c-kit, sequence (P10721 26-976): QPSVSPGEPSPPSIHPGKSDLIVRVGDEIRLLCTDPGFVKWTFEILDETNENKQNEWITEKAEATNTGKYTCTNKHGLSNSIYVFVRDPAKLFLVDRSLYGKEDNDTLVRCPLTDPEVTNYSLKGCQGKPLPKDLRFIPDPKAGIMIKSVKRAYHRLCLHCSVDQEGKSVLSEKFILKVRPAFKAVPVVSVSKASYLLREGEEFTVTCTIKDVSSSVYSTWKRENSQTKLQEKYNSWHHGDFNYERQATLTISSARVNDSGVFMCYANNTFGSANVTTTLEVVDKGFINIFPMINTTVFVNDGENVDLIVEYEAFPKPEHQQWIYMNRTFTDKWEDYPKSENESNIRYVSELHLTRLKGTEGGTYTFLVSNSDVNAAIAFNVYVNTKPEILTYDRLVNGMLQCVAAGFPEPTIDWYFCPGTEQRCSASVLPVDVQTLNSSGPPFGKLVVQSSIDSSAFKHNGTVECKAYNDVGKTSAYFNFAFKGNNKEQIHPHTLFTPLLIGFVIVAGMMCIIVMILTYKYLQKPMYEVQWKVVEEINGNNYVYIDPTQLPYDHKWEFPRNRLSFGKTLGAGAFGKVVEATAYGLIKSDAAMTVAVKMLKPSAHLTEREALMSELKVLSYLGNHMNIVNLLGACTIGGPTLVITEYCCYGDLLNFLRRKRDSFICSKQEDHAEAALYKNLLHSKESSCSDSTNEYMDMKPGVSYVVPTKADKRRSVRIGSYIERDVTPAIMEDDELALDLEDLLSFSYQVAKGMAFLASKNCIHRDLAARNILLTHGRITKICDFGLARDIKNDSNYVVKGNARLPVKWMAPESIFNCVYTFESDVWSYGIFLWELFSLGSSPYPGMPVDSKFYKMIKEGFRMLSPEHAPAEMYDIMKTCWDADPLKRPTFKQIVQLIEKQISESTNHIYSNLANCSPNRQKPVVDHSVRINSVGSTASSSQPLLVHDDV
The target of test [5] is VEGFR-2 (Homo sapiens, UniProt P35968). The test is described as follows: VEGFR-2. The test is classed as biochemical. The note with it: for VEGFR-2 inhibitory potency relative to Sunitinib: ratio of IC50 values.
VEGFR-2, sequence (P35968 20-1356): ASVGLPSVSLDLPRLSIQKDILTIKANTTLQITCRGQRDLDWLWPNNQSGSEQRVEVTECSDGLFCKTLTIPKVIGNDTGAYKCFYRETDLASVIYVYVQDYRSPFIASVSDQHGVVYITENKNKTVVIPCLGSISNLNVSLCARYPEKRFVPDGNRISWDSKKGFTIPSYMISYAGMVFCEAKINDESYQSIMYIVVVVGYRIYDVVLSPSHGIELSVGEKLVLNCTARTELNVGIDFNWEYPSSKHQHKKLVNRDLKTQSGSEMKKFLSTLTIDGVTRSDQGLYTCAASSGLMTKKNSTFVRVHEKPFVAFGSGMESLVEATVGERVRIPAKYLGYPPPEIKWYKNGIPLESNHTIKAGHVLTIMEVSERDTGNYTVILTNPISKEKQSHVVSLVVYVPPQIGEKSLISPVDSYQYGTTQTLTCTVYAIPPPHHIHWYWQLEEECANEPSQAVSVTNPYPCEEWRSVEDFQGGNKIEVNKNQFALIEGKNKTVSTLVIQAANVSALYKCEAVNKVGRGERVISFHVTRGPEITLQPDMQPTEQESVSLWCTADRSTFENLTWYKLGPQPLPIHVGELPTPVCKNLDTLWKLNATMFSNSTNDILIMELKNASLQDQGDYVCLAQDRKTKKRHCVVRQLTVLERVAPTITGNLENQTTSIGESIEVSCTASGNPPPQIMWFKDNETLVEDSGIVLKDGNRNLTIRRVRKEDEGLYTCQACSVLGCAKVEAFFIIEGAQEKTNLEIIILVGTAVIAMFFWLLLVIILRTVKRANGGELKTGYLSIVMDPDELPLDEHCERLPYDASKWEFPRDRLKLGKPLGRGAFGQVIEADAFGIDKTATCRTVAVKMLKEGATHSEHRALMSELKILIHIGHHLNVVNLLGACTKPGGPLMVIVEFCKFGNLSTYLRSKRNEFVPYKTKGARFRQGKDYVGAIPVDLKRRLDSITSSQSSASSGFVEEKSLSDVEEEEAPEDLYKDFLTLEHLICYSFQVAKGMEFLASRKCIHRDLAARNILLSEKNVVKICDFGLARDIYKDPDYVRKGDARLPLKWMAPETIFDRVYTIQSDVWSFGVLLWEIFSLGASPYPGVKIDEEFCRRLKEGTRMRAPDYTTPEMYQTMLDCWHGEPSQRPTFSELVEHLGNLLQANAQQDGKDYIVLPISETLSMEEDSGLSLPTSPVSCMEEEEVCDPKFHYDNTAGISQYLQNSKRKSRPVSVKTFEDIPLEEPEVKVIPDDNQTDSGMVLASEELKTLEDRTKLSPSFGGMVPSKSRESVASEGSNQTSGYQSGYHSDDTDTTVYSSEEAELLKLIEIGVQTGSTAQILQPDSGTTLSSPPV
Test [6] relates to MCF7 (breast) cancer cell line. The test is described as follows: MTT antiproliferative assay, MCF7. The format is cell-based. The conditions noted are these: for IC50: Homo sapiens, MCF7, 72 h, read-out: IC50 (μM) ± SE MCF7. Background: Tetrazolium assays rely on reduction of a dye to a coloured formazan, in cell work by metabolically active cells.
Test [7] has as its system SARS-CoV-2. The test is described as follows: Antiviral assay, virus-induced cytopathic effect. The test is classed as cell-based, SARS-CoV-2 (hCoV-19/Egypt/NRC-03/2020). The conditions noted are these: CC50 VERO-E6 / IC50 SARS-CoV-2. Background: Protection from cytopathic effect is a common read-out in antiviral testing.
Test [8] deals with MCF7 cells. The test is described as follows: Annexin V-FITC apoptosis/necrosis study. The conditions noted are these: MCF7, compound at its IC50; for Apoptosis (%) Late: control 0.13; for Apoptosis (%) Early: control 0.49; for Necrosis: control 0.87; for Apoptosis (%) Total: control 1.49. The test is classed as cell-based.
For test [9], the system named is MCF7 cells. The test can be described thus: Cell cycle analysis by PI-flow cytometry. The format is cell-based. The conditions noted are these: MCF7, compound at its IC50; for DNA content (%) G2/M: control 5.09; for DNA content (%) S: control 41.12; for DNA content (%) G0-G1: control 53.79; for DNA content (%) Pre-G1: control 1.49.

Where “and” joins values, the source holds several entries; their conditions need not be identical. Equal entries are not always repeated. Some results are limits rather than exact numbers.

As to `CCN(CC)CCNC(=O)c1c(C)[nH]c(/C=C2\C(=O)Nc3ccc(F)cc32)c1C` [Sunitinib, reference compound], the figures for the IC50 in [1] and in test [3] were 5.03 ± 0.3 µM and 16.9 ± 0.95 µM, respectively. In test [2], the “Mean diameter of blood vessels (mm ± SD)” value is 5 mm and 5.0 mm and 5.00 ± 0.71 mm.

Consider `CCS(=O)(=O)N(c1ccc(C(=O)/C=C2/C(=O)Nc3ccc(Cl)cc32)cc1)S(=O)(=O)CC` [Compound 10c, (E)-N-{4-[2-(5-Chloro-2-oxoindolin-3-ylidene)acetyl]phenyl}-N-(ethylsulfonyl)ethanesulfonamide], for which the IC50 in test [1] is > 50 µM; in [4], 0.0817 ± 0.0082 µM; in [5] it was 0.0534 ± 0.0053 µM; in test [3], 6.18 ± 0.32 µM; in test [6], 4.43 ± 0.47 µM. Further, in test [2], the “Mean diameter of blood vessels (mm ± SD)” value is 5.0 mm and 5.00 ± 0.40 mm. Further, the “VEGFR-2 inhibitory potency relative to Sunitinib” value in test [5] is on record as 0.89 fold. In addition, in test [6] (ratio of IC50 values), the “Potency against MCF7 relative to Sunitinib” value came out at 0.9 fold. In addition, in [7], the “SI (Selectivity index/therapeutical index) = CC50/IC50” value was 75.5.

Regarding `CCS(=O)(=O)Oc1ccc(C(=O)/C=C2/C(=O)Nc3ccccc32)cc1` [Compound 6b, (E)-4-[2-(2-Oxoindolin-3-ylidene)acetyl]phenyl ethanesulfonate], the IC50 in test [1] amounted to 12.8 ± 1.41 µM. This compound also returned an IC50 in [4] of 0.248 ± 0.0248 µM. The “Mean diameter of blood vessels (mm ± SD)” value in test [2] was determined as 5.10 ± 1.00 mm. The compound also yielded an IC50 in test [5] of 0.0989 ± 0.0099 µM. Besides, in test [3], the IC50 turned out to be 5.6 ± 0.57 µM and the “Potency against PaCa2 relative to Sunitinib” value is “three time folds”. Moreover, in [6], the IC50 worked out at 4.25 ± 0.23 µM. In test [8], the “Apoptosis (%) Late” value was 22.91%, the “Apoptosis (%) Early” value is listed as 2.51%, the Necrosis came to 9.29% and the “Apoptosis (%) Total” value was 34.71%. For the same compound, the “SI (Selectivity index/therapeutical index) = CC50/IC50” value in test [7] is listed as 23.8. In test [9], the “Cell cycle phase arrested” value is on record as “arrests the cell cycle at G1/S phase”, the “Decrease in cell population at G2/M relative to control” value stood at 47.5%, the “DNA content (%) G2/M” value is given as 2.67% and the “DNA content (%) S” value turned out to be 43.25%. In test [9], the “DNA content (%) G0-G1” value came to 54.08%.

Take `CCN(CCO)CCCC(C)Nc1ccnc2cc(Cl)ccc12` (stereo not drawn) [Hydroxychloroquine, reference compound]: in test [7], the “SI (Selectivity index/therapeutical index) = CC50/IC50” value is 12.2.

Turning to `NC(=O)c1nc(F)c[nH]c1=O` [Favipiravir, reference compound], the “SI (Selectivity index/therapeutical index) = CC50/IC50” value in [7] was found to be 1.9.

As to `CCS(=O)(=O)N(c1ccc(C(=O)/C=C2/C(=O)Nc3ccccc32)cc1)S(=O)(=O)CC` [Compound 10b, (E)-N-(Ethylsulfonyl)-N-{4-[2-(2-oxoindolin-3-ylidene)acetyl]phenyl}ethanesulfonamide], in test [1], the IC50 was 13.8 ± 1.06 µM. For the same compound, the midpoint of inhibition in test [4], the IC50, lay at 0.185 ± 0.0185 µM. The “Mean diameter of blood vessels (mm ± SD)” value in [2] is reported as 2.70 ± 0.40 mm. Besides, in test [5], the IC50 is 0.0741 ± 0.0074 µM. Besides, in [3], the IC50 was 5.08 ± 0.57 µM and the “Potency against PaCa2 relative to Sunitinib” value is ~3.3 folds. Also, in test [6], the IC50 amounted to 4.15 ± 0.78 µM. In test [8], the “Apoptosis (%) Late” value amounted to 17.15%, the “Apoptosis (%) Early” value was found to be 4.03%, the Necrosis came out at 7.07% and the “Apoptosis (%) Total” value came to 28.25%. The “SI (Selectivity index/therapeutical index) = CC50/IC50” value in test [7] is recorded as 165.6. Also, in test [9], the “Cell cycle phase arrested” value is “arrest the tested cell at S phase”, the “Increment in S phase relative to control” value is “about 13%” and the “DNA content (%) S” value is 54.18%.

As for `CCS(=O)(=O)Oc1ccc(C(=O)/C=C2/C(=O)Nc3ccc(Cl)cc32)cc1` [Compound 6c, (E)-4-[2-(5-Chloro-2-oxoindolin-3-ylidene)acetyl]phenyl ethanesulfonate], the half-inhibitory concentration (IC50) in [1] was 5.33 ± 0.46 µM; in [4] it was 0.0723 ± 0.0072 µM; in test [5], 0.0369 ± 0.0037 µM; in test [3] it was 4.99 ± 0.29 µM; in test [6], 4.28 ± 0.51 µM. In test [2], the “Mean diameter of blood vessels (mm ± SD)” value is 5.1 mm and 5.13 ± 0.90 mm. Besides, the “VEGFR-2 inhibitory potency relative to Sunitinib” value in [5] is on record as 1.3 fold. Besides, in [3], the “Potency against PaCa2 relative to Sunitinib” value is on record as “about 3.4 folds”. Further, in test [7], the “SI (Selectivity index/therapeutical index) = CC50/IC50” value is given as 26.4.

On to `CS(=O)(=O)N(c1ccc(C(=O)/C=C2/C(=O)Nc3ccccc32)cc1)S(C)(=O)=O` [Compound 10a, (E)-N-(Methylsulfonyl)-N-{4-[2-(2-oxoindolin-3-ylidene)acetyl]phenyl}methanesulfonamide], for which the IC50 in test [1] is 21 ± 1.75 µM; in [4], 0.103 ± 0.0103 µM; in [5], 0.102 ± 0.0102 µM; in test [3], 6.91 ± 0.89 µM; in [6] it was 6.07 ± 0.83 µM. Also, the “Mean diameter of blood vessels (mm ± SD)” value in test [2] is recorded as 3.50 ± 0.50 mm. The “SI (Selectivity index/therapeutical index) = CC50/IC50” value in test [7] is 7.4. Besides, the “DNA content (%) Pre-G1” value in test [9] came out at 28.25%. For the same compound, the “DNA content (%) G2/M” value in test [9] was found to be 4.11%. The “DNA content (%) S” value in test [9] is given as 54.18%. In addition, the “DNA content (%) G0-G1” value in [9] is 41.71%.

Take `CS(=O)(=O)Oc1ccc(C(=O)/C=C2/C(=O)Nc3ccccc32)cc1` [Compound 6a, (E)-4-[2-(2-Oxoindolin-3-ylidene)acetyl]phenyl methanesulfonate]: the IC50 in [1] came out at 16.4 ± 0.7 µM; in test [4], 0.12 ± 0.012 µM; in test [5], 0.054 ± 0.0054 µM; in test [3] it was 8.3 ± 0.44 µM; in test [6], 6.85 ± 0.37 µM. Further, in test [2], the “Mean diameter of blood vessels (mm ± SD)” value came to 3.20 ± 1.00 mm. For the same compound, the “SI (Selectivity index/therapeutical index) = CC50/IC50” value in [7] turned out to be 362.5. The “DNA content (%) Pre-G1” value in [9] is given as 34.71%. Besides, the “DNA content (%) G2/M” value in test [9] is on record as 2.67%. Besides, the “DNA content (%) S” value in [9] is given as 43.25%. Further, the “DNA content (%) G0-G1” value in test [9] is given as 54.08%.

As for `CCN(CC)CCCC(C)Nc1ccnc2cc(Cl)ccc12` (stereo not drawn) [Chloroquine, reference compound], in test [7], the “SI (Selectivity index/therapeutical index) = CC50/IC50” value stood at 19.1.
